# Source: patent US8637550B2, “Heteroaryl diamide compounds useful as MMP-13 inhibitors” (Boehringer Ingelheim International GmbH, priority 2008, dated 2014)
# Target: MMP-13 (Homo sapiens, UniProt P45452)
# Test: EnzoLyte 520 Generic MMP Assay Kit, 5-FAM/QXL520 FRET peptide substrate
# Assay type: biochemical
# From the text: The EnzoLyte™ 520 Generic MMP Assay Kit (AnaSpec Inc.) can detect the activity of several MMPs including MMP-1, 2, 3, 7, 8, 9, 13, and 14. This kit uses a 5-FAM/QXL™520 fluorescence resonance energy transfer (FRET) peptide as an MMP substrate.
row,SMILES,IC50 [nM]
1,"CNC(=O)[C@@H](NC(=O)c1ccc(-c2ccc(-c3ccncc3)cn2)o1)C1CCCCC1 [5-[3,4′]Bipyridinyl-6-yl-furan-2-carboxylic acid ((S)-cyclohexyl-methylcarbamoyl-methyl)-amide]",23
2,CNC(=O)[C@@H](NC(=O)c1ccc(-c2cccc(CN)c2)o1)C1CCOCC1 [5-[3-(Aminomethyl)phenyl]-N-[(1S)-2-(methylamino)-2-oxo-1-(tetrahydro-2H-pyran-4-yl)ethyl]-2-furamide],415
3,CNC(=O)[C@@H](NC(=O)c1ccc(-c2cccc(CNC(=O)c3ccccc3)c2)o1)C(C)C [5-[3-(Benzoylamino-methyl)-phenyl]-furan-2-carboxylic acid ((S)-2-methyl-1-methylcarbamoyl-propyl)-amide],205
4,"CNC(=O)[C@@H](NC(=O)c1ccc(-c2ccc(OCc3cc(C)nn3C)cc2)o1)C1CCCCC1 [5-[4-(2,5-Dimethyl-2H-pyrazol-3-ylmethoxy)-phenyl]-furan-2-carboxylic acid ((S)-cyclohexyl-methylcarbamoyl-methyl)-amide]",6
5,CNC(=O)[C@@H](NC(=O)c1ccc(-c2ccc(OCc3[nH]cnc3C)cc2)o1)C1CCOCC1 [5-[4-(5-Methyl-3H-imidazol-4-ylmethoxy)-phenyl]-furan-2-carboxylic acid [(S)-methylcarbamoyl-(tetrahydro-pyran-4-yl)-methyl]-amide],27
6,"CNC(=O)[C@@H](NC(=O)c1ccc(-c2ccc(OCc3cc(C)n(C)n3)cn2)o1)C(C)C [5-[5-(1,5-Dimethyl-1H-pyrazol-3-ylmethoxy)-pyridin-2-yl]-furan-2-carboxylic acid ((S)-2-methyl-1-methylcarbamoyl-propyl)-amide]",80
7,CNC(=O)[C@@H](NC(=O)c1ccc(-c2ccc(OCc3cc4ccccc4o3)cn2)o1)C1CCCCC1 [5-[5-(1-Benzofuran-2-ylmethoxy)pyridin-2-yl]-N-[(1S)-1-cyclohexyl-2-(methylamino)-2-oxoethyl]furan-2-carboxamide],6
8,CNC(=O)[C@@H](NC(=O)c1ccc(-c2ccc(-c3ccc4[nH]ccc4c3)cn2)o1)C(C)C [5-[5-(1H-Indol-5-yl)-pyridin-2-yl]-furan-2-carboxylic acid ((S)-2-methyl-1-methylcarbamoyl-propyl)-amide],260
9,CNC(=O)[C@@H](NC(=O)c1ccc(-c2ccc(-c3ccc4cc[nH]c4c3)cn2)o1)C(C)C [5-[5-(1H-Indol-6-yl)-pyridin-2-yl]-furan-2-carboxylic acid ((S)-2-methyl-1-methylcarbamoyl-propyl)-amide],91
10,"CNC(=O)[C@@H](NC(=O)c1ccc(-c2ccc(OCc3cc(C)nn3C)cn2)o1)C1CCCCC1 [5-[5-(2,5-Dimethyl-2H-pyrazol-3-ylmethoxy)-pyridin-2-yl]-furan-2-carboxylic acid ((S)-cyclohexyl-methylcarbamoyl-methyl)-amide]",2
11,CNC(=O)[C@@H](NC(=O)c1ccc(-c2ccc(-c3cnc(N)nc3)cn2)o1)C(C)C [5-[5-(2-Amino-pyrimidin-5-yl)-pyridin-2-yl]-furan-2-carboxylic acid ((S)-2-methyl-1-methylcarbamoyl-propyl)-amide],380
12,"CNC(=O)[C@@H](NC(=O)c1ccc(-c2ccc(-c3cc(F)cc(F)c3)cn2)o1)C(C)C [5-[5-(3,5-Difluoro-phenyl)-pyridin-2-yl]-furan-2-carboxylic acid ((S)-2-methyl-1-methylcarbamoyl-propyl)-amide]",370
13,CNC(=O)[C@@H](NC(=O)c1ccc(-c2ccc(-c3cccc(F)c3)cn2)o1)C(C)C [5-[5-(3-Fluoro-phenyl)-pyridin-2-yl]-furan-2-carboxylic acid ((S)-2-methyl-1-methylcarbamoyl-propyl)-amide],325
14,CNC(=O)[C@@H](NC(=O)c1ccc(-c2ccc(-c3ccc(C#N)cc3)cn2)o1)C(C)C [5-[5-(4-Cyano-phenyl)-pyridin-2-yl]-furan-2-carboxylic acid ((S)-2-methyl-1-methylcarbamoyl-propyl)-amide],22
15,CCOc1ccc(-c2ccc(-c3ccc(C(=O)N[C@H](C(=O)NC)C(C)C)o3)nc2)cc1 [5-[5-(4-Ethoxy-phenyl)-pyridin-2-yl]-furan-2-carboxylic acid ((S)-2-methyl-1-methylcarbamoyl-propyl)-amide],47

# Other lines, results leading:
row,IC50 [nM],SMILES
1,78,CNC(=O)[C@@H](NC(=O)c1ccc(-c2ccc(-c3ccc(F)cc3)cn2)o1)C(C)C [5-[5-(4-Fluoro-phenyl)-pyridin-2-yl]-furan-2-carboxylic acid ((S)-2-methyl-1-methylcarbamoyl-propyl)-amide]
2,29,CNC(=O)[C@@H](NC(=O)c1ccc(-c2ccc(-c3ccc(OC(C)C)cc3)cn2)o1)C(C)C [5-[5-(4-Isopropoxy-phenyl)-pyridin-2-yl]-furan-2-carboxylic acid ((S)-2-methyl-1-methylcarbamoyl-propyl)-amide]
3,180,CNC(=O)[C@@H](NC(=O)c1ccc(-c2ccc(-c3ccc(C)cc3)cn2)o1)C(C)C [5-[5-(4-Methyl-phenyl)-pyridin-2-yl]-furan-2-carboxylic acid ((S)-2-methyl-1-methylcarbamoyl-propyl)-amide]
4,415,CNC(=O)[C@@H](NC(=O)c1ccc(-c2ccc(OCc3[nH]cnc3C)cn2)o1)C1CCOCC1 [5-[5-(5-Methyl-3H-imidazol-4-ylmethoxy)-pyridin-2-yl]-furan-2-carboxylic acid [(S)-methylcarbamoyl-(tetrahydro-pyran-4-yl)-methyl]-amide]
5,17,CCNC(=O)[C@@H](NC(=O)c1ccc(-c2ccc(OCc3ccccc3)cn2)o1)C1CCCCC1 [5-[5-(Benzyloxy)pyridin-2-yl]-N-[(1S)-1-cyclohexyl-2-(ethylamino)-2-oxoethyl]furan-2-carboxamide]
6,10,CNC(=O)[C@@H](NC(=O)c1ccc(-c2ccc(OCc3ccccc3)cn2)o1)C1CCCCC1 [5-[5-(Benzyloxy)pyridin-2-yl]-N-[(1S)-1-cyclohexyl-2-(methylamino)-2-oxoethyl]furan-2-carboxamide]
7,3,CNC(=O)[C@@H](NC(=O)c1ccc(-c2ccc(OCc3ccccc3)cn2)o1)C1CCOCC1 [5-[5-(Benzyloxy)pyridin-2-yl]-N-[(1S)-2-(methylamino)-2-oxo-1-(tetrahydro-2H-pyran-4-yl)ethyl]furan-2-carboxamide]
8,156,"CNC(=O)[C@@H](NC(=O)c1ccc(-c2cccc(CNC(=O)c3ccc(C)c(C)c3)c2)o1)C(C)C [5-{3-[(3,4-Dimethyl-benzoylamino)-methyl]-phenyl}-furan-2-carboxylic acid ((S)-2-methyl-1-methylcarbamoyl-propyl)-amide]"
9,160,CNC(=O)[C@@H](NC(=O)c1ccc(-c2cccc(CNC(=O)c3cccc(C#N)c3)c2)o1)C(C)C [5-{3-[(3-Cyano-benzoylamino)-methyl]-phenyl}-furan-2-carboxylic acid ((S)-2-methyl-1-methylcarbamoyl-propyl)-amide]
10,213,CNC(=O)[C@@H](NC(=O)c1ccc(-c2cccc(CNC(=O)c3cccc(N(C)C)c3)c2)o1)C(C)C [5-{3-[(3-Dimethylamino-benzoylamino)-methyl]-phenyl}-furan-2-carboxylic acid ((S)-2-methyl-1-methylcarbamoyl-propyl)-amide]
11,160,CNC(=O)[C@@H](NC(=O)c1ccc(-c2cccc(CNC(=O)c3cccc(C(C)C)c3)c2)o1)C(C)C [5-{3-[(3-Isopropyl-benzoylamino)-methyl]-phenyl}-furan-2-carboxylic acid ((S)-2-methyl-1-methylcarbamoyl-propyl)-amide]
12,163,CNC(=O)[C@@H](NC(=O)c1ccc(-c2cccc(CNC(=O)c3cccc(OC)c3)c2)o1)C(C)C [5-{3-[(3-Methoxy-benzoylamino)-methyl]-phenyl}-furan-2-carboxylic acid ((S)-2-methyl-1-methylcarbamoyl-propyl)-amide]
13,132,CNC(=O)[C@@H](NC(=O)c1ccc(-c2cccc(CNC(=O)c3cccc(C)c3)c2)o1)C(C)C [5-{3-[(3-Methyl-benzoylamino)-methyl]-phenyl}-furan-2-carboxylic acid ((S)-2-methyl-1-methylcarbamoyl-propyl)-amide]
14,215,CNC(=O)[C@@H](NC(=O)c1ccc(-c2cccc(CNC(=O)c3ccc(F)c(C(F)(F)F)c3)c2)o1)C(C)C [5-{3-[(3-Trifluoromethyl-4-fluoro-benzoylamino)-methyl]-phenyl}-furan-2-carboxylic acid ((S)-2-methyl-1-methylcarbamoyl-propyl)-amide]
15,49,CNC(=O)[C@@H](NC(=O)c1ccc(-c2cccc(CNC(=O)c3cccc(C(F)(F)F)c3)c2)o1)C(C)C [5-{3-[(3-Trifluoromethyl-benzoylamino)-methyl]-phenyl}-furan-2-carboxylic acid ((S)-2-methyl-1-methylcarbamoyl-propyl)-amide]
16,185,CNC(=O)[C@@H](NC(=O)c1ccc(-c2cccc(CNC(=O)c3ccc(C#N)cc3)c2)o1)C(C)C [5-{3-[(4-Cyano-benzoylamino)-methyl]-phenyl}-furan-2-carboxylic acid ((S)-2-methyl-1-methylcarbamoyl-propyl)-amide]
17,110,CNC(=O)[C@@H](NC(=O)c1ccc(-c2cccc(CNC(=O)c3ccc(N(C)C)cc3)c2)o1)C(C)C [5-{3-[(4-Dimethylamino-benzoylamino)-methyl]-phenyl}-furan-2-carboxylic acid ((S)-2-methyl-1-methylcarbamoyl-propyl)-amide]
18,225,CNC(=O)[C@@H](NC(=O)c1ccc(-c2cccc(CNC(=O)c3ccc(C(C)C)cc3)c2)o1)C(C)C [5-{3-[(4-Isopropyl-benzoylamino)-methyl]-phenyl}-furan-2-carboxylic acid ((S)-2-methyl-1-methylcarbamoyl-propyl)-amide]
19,155,CNC(=O)[C@@H](NC(=O)c1ccc(-c2cccc(CNC(=O)c3ccc(OC)cc3)c2)o1)C(C)C [5-{3-[(4-Methoxy-benzoylamino)-methyl]-phenyl}-furan-2-carboxylic acid ((S)-2-methyl-1-methylcarbamoyl-propyl)-amide]
